Measured values from the OligoGym collection.
HELM strings list units from the 5' end as sugar, base in round brackets, then linkage (d deoxyribose, r ribose, m 2'-O-methyl, p phosphodiester). Strings are as the collection lists them; they lack the last nucleoside at the 3' end of the tested compound. [moe] = 2'-O-(2-methoxyethyl) (MOE); [sp] = phosphorothioate linkage; [m5C] = 5-methylcytosine

What follows are substances tested against PRNP (assay: mouse, dose not given). Conditions: ASO.
Substance “RNA1{[moe]([m5C])[sp].[moe]([m5C])p.[moe]([m5C])p.[moe](A)p.[moe](G)[sp].d(T)[sp].d(G)[sp].d(T)[sp].d(T)[sp].d([m5C])[sp].d([m5C])[sp].d(A)[sp].d(T)[sp].d([m5C])[sp].d([m5C])[sp].[moe](T)p.[moe]([m5C])p.[moe]([m5C])[sp].[moe](A)}$$$$ (last 3' nucleoside missing)” has a 3 h FOB score of 2 score 0-7.
Work on “RNA1{[moe](G)[sp].[moe]([m5C])p.[moe](T)p.[moe](T)p.[moe](A)[sp].d(A)[sp].d(T)[sp].d(T)[sp].d(A)[sp].d(G)[sp].d(T)[sp].d(T)[sp].d(A)[sp].d([m5C])[sp].d(A)[sp].[moe](T)p.[moe]([m5C])p.[moe](G)[sp].[moe](G)}$$$$ (last 3' nucleoside missing)” yielded a 3 h FOB score of 4.5 score 0-7.
“RNA1{[moe](T)[sp].[moe](G)p.[moe](T)p.[moe](G)p.[moe]([m5C])[sp].d(T)[sp].d(T)[sp].d(A)[sp].d(T)[sp].d(T)[sp].d(A)[sp].d(T)[sp].d(T)[sp].d([m5C])[sp].d(A)[sp].[moe](T)p.[moe](G)p.[moe](T)[sp].[moe](T)}$$$$ (last 3' nucleoside missing)” showed a 3 h FOB score of 0 score 0-7.
With “RNA1{[moe](T)[sp].[moe](G)p.[moe](T)p.[moe](G)p.[moe]([m5C])[sp].d(T)[sp].d(T)[sp].d(T)[sp].d(T)[sp].d([m5C])[sp].d([m5C])[sp].d(T)[sp].d(T)[sp].d(T)[sp].d([m5C])[sp].[moe](A)p.[moe](G)p.[moe](A)[sp].[moe](T)}$$$$ (last 3' nucleoside missing)” the 3 h FOB score was 0.75 score 0-7.
“RNA1{[moe](G)[sp].[moe](T)p.[moe](G)p.[moe](G)p.[moe](A)[sp].d(A)[sp].d(G)[sp].d(A)[sp].d([m5C])[sp].d(T)[sp].d(T)[sp].d(G)[sp].d(T)[sp].d(G)[sp].d(T)[sp].[moe](T)p.[moe](A)p.[moe](G)[sp].[moe](A)}$$$$ (last 3' nucleoside missing)” was tested, and the 3 h FOB score was 5.25 score 0-7.
In the case of “RNA1{[moe]([m5C])[sp].[moe](T)p.[moe](A)p.[moe](T)p.[moe](G)[sp].d(A)[sp].d(T)[sp].d(G)[sp].d(A)[sp].d(T)[sp].d(G)[sp].d(G)[sp].d(T)[sp].d(G)[sp].d([m5C])[sp].[moe](T)p.[moe](T)p.[moe](T)[sp].[moe]([m5C])}$$$$ (last 3' nucleoside missing)”, the 3 h FOB score is reported as 6 score 0-7.
In the case of “RNA1{[moe](T)[sp].[moe]([m5C])p.[moe](T)p.[moe](A)p.d(T)[sp].d(G)[sp].d(T)[sp].d(T)[sp].d(T)[sp].d(T)[sp].d([m5C])[sp].d([m5C])[sp].d(A)[sp].d(G)[sp].[moe](T)p.[moe](G)p.[moe]([m5C])p.[moe]([m5C])[sp].[moe]([m5C])}$$$$ (last 3' nucleoside missing)”, the 3 h FOB score is reported as 1 score 0-7.
Work on “RNA1{[moe](G)[sp].[moe](A)p.[moe](G)p.[moe](T)p.[moe](G)[sp].d(A)[sp].d(A)[sp].d(T)[sp].d(T)[sp].d(A)[sp].d(T)[sp].d(T)[sp].d(T)[sp].d(T)[sp].d([m5C])[sp].[moe](T)p.[moe](T)p.[moe]([m5C])[sp].[moe](T)}$$$$ (last 3' nucleoside missing)” yielded a 3 h FOB score of 2 score 0-7.
For “RNA1{[moe](G)[sp].[moe]([m5C])p.[moe](A)p.[moe]([m5C])p.[moe](A)p.[moe]([m5C])p.d(T)[sp].d(G)[sp].d(A)[sp].d([m5C])[sp].d([m5C])[sp].d(A)[sp].d(T)[sp].d(T)[sp].d(T)[sp].d(T)[sp].[moe](T)p.[moe](T)[sp].[moe](A)}$$$$ (last 3' nucleoside missing)”, the 3 h FOB score was 0 score 0-7.
Work on “RNA1{[moe](A)[sp].[moe]([m5C])[sp].[moe](T)p.[moe]([m5C])p.[moe](T)p.[moe](A)p.[moe](T)p.d(G)[sp].d(T)[sp].d(T)[sp].d(T)[sp].d(T)[sp].d([m5C])[sp].d([m5C])[sp].d(A)[sp].d(G)[sp].d(T)[sp].[moe](G)p.[moe]([m5C])}$$$$ (last 3' nucleoside missing)” yielded a 3 h FOB score of 4.25 score 0-7.
For “RNA1{[moe](G)[sp].[moe](T)p.[moe]([m5C])p.[moe](A)p.[moe](G)[sp].d(T)[sp].d(T)[sp].d(T)[sp].d(T)[sp].d(T)[sp].d([m5C])[sp].d([m5C])[sp].d([m5C])[sp].[moe]([m5C])p.[moe](A)p.[moe]([m5C])[sp].[moe](A)}$$$$ (last 3' nucleoside missing)”, the 3 h FOB score was 0 score 0-7.
With “RNA1{[moe](G)[sp].[moe](T)p.[moe]([m5C])p.[moe](A)p.[moe](T)[sp].d(A)[sp].d(A)[sp].d(T)[sp].d(T)[sp].d(T)[sp].d(T)[sp].d([m5C])[sp].d(T)[sp].d(T)[sp].d(A)[sp].[moe](G)p.[moe]([m5C])p.[moe](T)[sp].[moe](A)}$$$$ (last 3' nucleoside missing)” the 3 h FOB score was 0 score 0-7.
In the case of “RNA1{[moe](T)[sp].[moe](T)p.[moe]([m5C])p.[moe](A)p.[moe](G)[sp].d(A)[sp].d(T)[sp].d(T)[sp].d(T)[sp].d(T)[sp].d(T)[sp].d([m5C])[sp].d(A)[sp].d([m5C])[sp].d(A)[sp].[moe](T)p.[moe](A)p.[moe](T)[sp].[moe](G)}$$$$ (last 3' nucleoside missing)”, the 3 h FOB score is reported as 1 score 0-7.
“RNA1{[moe](T)[sp].[moe](G)p.[moe](T)p.[moe](T)p.[moe](T)[sp].d(G)[sp].d(T)[sp].d(T)[sp].d(T)[sp].d([m5C])[sp].d(T)[sp].d(T)[sp].d([m5C])[sp].d([m5C])[sp].d(A)[sp].[moe](T)p.[moe](T)p.[moe](G)[sp].[moe]([m5C])}$$$$ (last 3' nucleoside missing)” was tested, and the 3 h FOB score was 1 score 0-7.
Work on “RNA1{[moe]([m5C])[sp].[moe]([m5C])p.[moe](G)p.[moe](T)p.[moe](T)[sp].d([m5C])[sp].d(A)[sp].d(T)[sp].d([m5C])[sp].d(T)[sp].d(T)[sp].d(A)[sp].d(T)[sp].d(T)[sp].d([m5C])[sp].[moe]([m5C])p.[moe]([m5C])p.[moe](A)[sp].[moe](T)}$$$$ (last 3' nucleoside missing)” yielded a 3 h FOB score of 0 score 0-7.
With “RNA1{[moe](G)[sp].[moe]([m5C])p.[moe](T)p.[moe](T)p.[moe](A)p.d([m5C])[sp].d(T)[sp].d([m5C])[sp].d(G)[sp].d(G)[sp].d([m5C])[sp].d(T)[sp].d(T)[sp].d(G)[sp].[moe](T)[sp].[moe](T)p.[moe]([m5C])p.[moe]([m5C])}$$$$ (last 3' nucleoside missing)” the 3 h FOB score was 4.5 score 0-7.
Work on “RNA1{[moe](G)[sp].[moe](T)p.[moe](T)p.[moe](G)p.[moe](T)[sp].d(G)[sp].d(A)[sp].d([m5C])[sp].d(A)[sp].d(A)[sp].d(T)[sp].d(A)[sp].d(T)[sp].d(T)[sp].d(T)[sp].[moe](A)p.[moe]([m5C])p.[moe](T)[sp].[moe]([m5C])}$$$$ (last 3' nucleoside missing)” yielded a 3 h FOB score of 0 score 0-7.
For “RNA1{[moe]([m5C])[sp].[moe](T)p.[moe](A)p.[moe](T)p.[moe](G)p.[moe](T)p.d(T)[sp].d(T)[sp].d(T)[sp].d([m5C])[sp].d([m5C])[sp].d(A)[sp].d(G)[sp].d(T)[sp].d(G)[sp].d([m5C])[sp].[moe]([m5C])p.[moe]([m5C])[sp].[moe](A)}$$$$ (last 3' nucleoside missing)”, the 3 h FOB score was 3.75 score 0-7.
In the case of “RNA1{[moe](A)[sp].[moe]([m5C])p.[moe](A)p.[moe](T)p.[moe](T)[sp].d(T)[sp].d(A)[sp].d(T)[sp].d(T)[sp].d(T)[sp].d([m5C])[sp].d(A)[sp].d(T)[sp].d(G)[sp].d(T)[sp].[moe](G)p.[moe]([m5C])p.[moe]([m5C])[sp].[moe](A)}$$$$ (last 3' nucleoside missing)”, the 3 h FOB score is reported as 3 score 0-7.
“RNA1{[moe](A)[sp].[moe](G)p.[moe]([m5C])p.[moe](A)p.[moe]([m5C])[sp].d(A)[sp].d(G)[sp].d(G)[sp].d([m5C])[sp].d(T)[sp].d(A)[sp].d(T)[sp].d([m5C])[sp].d(T)[sp].d(T)[sp].[moe](T)p.[moe]([m5C])p.[moe](T)[sp].[moe](A)}$$$$ (last 3' nucleoside missing)” gave a 3 h FOB score of 5 score 0-7.
In the case of “RNA1{[moe](G)[sp].[moe]([m5C])p.[moe](T)p.[moe](A)p.[moe](T)[sp].d(G)[sp].d(A)[sp].d(A)[sp].d(A)[sp].d(T)[sp].d([m5C])[sp].d(T)[sp].d([m5C])[sp].d(T)[sp].d(A)[sp].[moe]([m5C])p.[moe](T)p.[moe](A)[sp].[moe](A)}$$$$ (last 3' nucleoside missing)”, the 3 h FOB score is reported as 2.5 score 0-7.
With “RNA1{[moe](T)[sp].[moe]([m5C])p.[moe](T)p.[moe](T)p.[moe](A)[sp].d(G)[sp].d(A)[sp].d(T)[sp].d(T)[sp].d(T)[sp].d(T)[sp].d(T)[sp].d(G)[sp].d(G)[sp].d(A)[sp].[moe]([m5C])p.[moe](G)p.[moe](G)[sp].[moe](G)}$$$$ (last 3' nucleoside missing)” the 3 h FOB score was 4.5 score 0-7.
Substance “RNA1{[moe](T)[sp].[moe](G)p.[moe](T)p.[moe]([m5C])p.d(A)[sp].d(G)[sp].d(T)[sp].d(T)[sp].d(T)[sp].d(T)[sp].d(T)[sp].d([m5C])[sp].d([m5C])[sp].d([m5C])[sp].[moe]([m5C])p.[moe](A)p.[moe]([m5C])p.[moe](A)[sp].[moe](T)}$$$$ (last 3' nucleoside missing)” has a 3 h FOB score of 0 score 0-7.
“RNA1{[moe](T)[sp].[moe](G)p.[moe](G)p.[moe](T)p.[moe](T)[sp].d(A)[sp].d(G)[sp].d([m5C])[sp].d(T)[sp].d(T)[sp].d(T)[sp].d(T)[sp].d(T)[sp].d(T)[sp].d(T)[sp].[moe]([m5C])p.[moe](A)p.[moe]([m5C])[sp].[moe](T)}$$$$ (last 3' nucleoside missing)” was tested, and the 3 h FOB score was 6.25 score 0-7.
“RNA1{[moe](G)[sp].[moe](T)p.[moe]([m5C])p.[moe](A)p.[moe](G)p.d(T)[sp].d(T)[sp].d(T)[sp].d(T)[sp].d(T)[sp].d([m5C])[sp].d([m5C])[sp].d([m5C])[sp].d([m5C])[sp].[moe](A)[sp].[moe]([m5C])p.[moe](A)p.[moe](T)}$$$$ (last 3' nucleoside missing)” showed a 3 h FOB score of 0 score 0-7.
In the case of “RNA1{[moe](G)[sp].[moe](G)p.[moe](T)p.[moe](T)p.[moe](T)[sp].d(T)[sp].d(T)[sp].d(G)[sp].d(A)[sp].d([m5C])[sp].d(A)[sp].d(A)[sp].d(T)[sp].d(T)[sp].d(A)[sp].[moe](T)p.[moe](G)p.[moe](A)[sp].[moe](G)}$$$$ (last 3' nucleoside missing)”, the 3 h FOB score is reported as 5 score 0-7.
